Measurements from patent US20160115540A1, “PRODRUGS AND DRUGS” (Biogen MA Inc., priority 2013, published 2016).
Structures can show the parent of a compound that is named as a salt.

System: kidney
Experiment: Transcriptional profiling on Affymetrix GeneChips, single dose, naïve mice: kidney
Assay type: in vivo, C57BL/6 mice
Conditions: for FC: 100DMF-vs-Veh, fold change of the probe set/gene named in the row (Affymetrix, naïve single dose); for Number of differentially expressed genes identified: Kidney: Naïve, Single Dose
Experimental: Treated mice were sacrificed at 2, 7, or 12 hours. Tissues (liver, spleen, kidney, jejunum, cortex, hippocampus, striatum and whole blood) were collected and analyzed by transcriptional profiling on mouse Affymetrix GeneChips.
Tissues (liver, spleen, kidney, jejunum, cortex, hippocampus, striatum and whole blood) were collected and analyzed by transcriptional profiling on mouse Affymetrix GeneChips.
Animals were exposed to CO2 and whole blood collected via cardiac puncture. Two 100 μl aliquots of whole blood were collected in 1.5 mL microcentrifuge tubes and snap frozen in liquid nitrogen. Peripheral (liver, spleen, kidney and jejunum) and CNS brain (cerebellum, hippocampus, striatum and cortex) tissues were harvested and snap frozen in liquid nitrogen, with special care taken to collect tissues of similar size and from the same location. All samples were stored at −80° C. until RNA extraction was conducted.
For RNA preparation, frozen tissues were placed in 2 mL RNAse-free 96-well blocks with 1.5 mL QIAzol Lysis Reagent (QIAgen) and a 3.2 mm stainless steel bead (BioSpec Products, Bartlesville, Okla.). Tissues were disrupted for four cycles of 45 seconds in a Mini-Beadbeater (Biospec Products). RNA was extracted in chloroform and the aqueous phase was mixed with an equal volume of 70% ethanol. Extracted RNA was applied to RNeasy 96 plates and purified by the spin method according to the manufacturer's protocol (RNeasy 96 Universal Tissue Protocol, QIAgen, Hilden Germany).
Automated sample amplifications and biotin labelings were carried out using the NuGEN Ovation RNA Amplification system V2 (Cat #3100), Ovation WB reagent (Cat #1300) and Encore Biotin module (Cat #4200) (NuGEN Technologies, Inc, San Carlos, Calif.) according to manufacturer's recommendations using an Arrayplex automated liquid handler (Beckman Coulter, Indianapolis, Ind.). Two micrograms of biotin labeled sscDNA probe were hybridized to Affymetrix GeneChip Affymetrix HT_MG-430_PM plate arrays with modified conditions as described in Allaire et al. Washing and staining of the hybridized arrays were completed as described in the GeneChip Expression analysis technical manual for HT plate arrays using the Genechip® Array Station (Affymetrix, Santa Clara, Calif.) with modifications as described in Allaire et al. The processed GeneChip® plate arrays were scanned using GeneTitan scanner (Affymetrix, Santa Clara, Calif.).
Affymetrix scans were subject to quality control (QC) measures. These tests included a visual inspection of the distribution of raw signal intensities and an assessment of RNA degradation, relative log expression (RLE), and normalized unsealed standard error (NUSE). All sample scans that passed these QC metrics were included in the analysis.
All CEL files were subjected to GC-content-based Robust Multi-array Average (GCRMA) normalization (version 2.20.0) (Irizarry R A, et al. Nucleic Acids Res 2003; 31:e15; Li C, et al. Genome Biol 2001; 2:[…]0032). Expression levels were log (base 2) transformed.
All calculations and analyses were carried out using R (version 2.11.1) and Bioconductor computational tools (Gentleman R. Springer Science+Business Media 2005).

COC(=O)/C=C/C(=O)OC [DMF, dimethyl fumarate]
FC Tmem88b 1436974_PM_at (100 DMF-vs-Veh, 2 h): −2.24 | FC Tnfaip3 1433699_PM_at (100 DMF-vs-Veh, 2 h): −1.83 | FC Tnfsf10 1439680_PM_at (100 DMF-vs-Veh, 2 h): −1.52 | FC Trim7 1439352_PM_at (100 DMF-vs-Veh, 2 h): −1.54 | FC Txnrd1 1421529_PM_a_at (100 DMF-vs-Veh, 2 h): 1.53 | FC Txnrd1 (1424487_PM_x_at) (100 DMF-vs-Veh, 2 h): 1.99 | FC Ubiad1 1424213_PM_at (100 DMF-vs-Veh, 2 h): −1.61 | FC Ubxn7 1435912_PM_at (100 DMF-vs-Veh, 2 h): 1.51 | FC Vps37b 1424380_PM_at (100 DMF-vs-Veh, 2 h): 1.56 | FC Zbtb2 1434901_PM_at (100 DMF-vs-Veh, 2 h): 2.52 | FC Zfp30 1449813_PM_at (100 DMF-vs-Veh, 2 h): −1.55 | FC Zfp39 1441198_PM_at (100 DMF-vs-Veh, 2 h): −1.64 | FC Zfp93 1418955_PM_at (100 DMF-vs-Veh, 2 h): −1.74 | FC Zfp189 1425287_PM_at (100 DMF-vs-Veh, 2 h): 1.51 | FC Zfp295 1425305_PM_at (100 DMF-vs-Veh, 2 h): 2.68 | FC Zfp295 1441973_PM_at (100 DMF-vs-Veh, 2 h): 2.08 | FC Zfp759 1452623_PM_at (100 DMF-vs-Veh, 2 h): −1.65 | FC Zswim6 1434967_PM_at (100 DMF-vs-Veh, 2 h): 1.63 | FC (7 h): −1.82 | FC (12 h): 1.82 | FC Adm (1416077_PM_at) (KIDNEY, 100 DMF-vs-Veh, 2 h): 1.56 | FC Bhlhe40 (1418025_PM_at) (KIDNEY, 100 DMF-vs-Veh, 2 h): 1.59 | FC Cyr61 (1416039_PM_x_at) (KIDNEY, 100 DMF-vs-Veh, 2 h): 2.43 | FC Dbf4 (1418334_PM_at) (KIDNEY, 100 DMF-vs-Veh, 2 h): 2.08 | FC Ddit3 (1417516_PM_at) (KIDNEY, 100 DMF-vs-Veh, 2 h): 3.97 | FC Dnaja1 (1416288_PM_at) (KIDNEY, 100 DMF-vs-Veh, 2 h): 1.69 | FC Dnaja4 (1418591_PM_at) (KIDNEY, 100 DMF-vs-Veh, 2 h): 2.05 | FC Dnaja4 (1418592_PM_at) (KIDNEY, 100 DMF-vs-Veh, 2 h): 1.87 | FC Dnajb1 (1416755_PM_at) (KIDNEY, 100 DMF-vs-Veh, 2 h): 3.03 | FC Dnajb1 (1416756_PM_at) (KIDNEY, 100 DMF-vs-Veh, 2 h): 4.36 | FC Dusp6 (1415834_PM_at) (KIDNEY, 100 DMF-vs-Veh, 2 h): 1.52 | FC Dusp16 (1418401_PM_a_at) (KIDNEY, 100 DMF-vs-Veh, 2 h): 1.50 | FC Egr1 (1417065_PM_at) (KIDNEY, 100 DMF-vs-Veh, 2 h): 4.60 | FC Gclm 1418627_PM_at (KIDNEY, 100 DMF-vs-Veh, 2 h): 1.51 | FC Hbegf (1418349_PM_at) (KIDNEY, 100 DMF-vs-Veh, 2 h): 2.03 | FC Hbegf (1418350_PM_at) (KIDNEY, 100 DMF-vs-Veh, 2 h): 2.21 | FC Ier2 (1416442_PM_at) (KIDNEY, 100 DMF-vs-Veh, 2 h): 1.75 | FC Ifrd1 (1416067_PM_at) (KIDNEY, 100 DMF-vs-Veh, 2 h): 1.52 | FC Igfbp1 (1418918_PM_at) (KIDNEY, 100 DMF-vs-Veh, 2 h): −2.89 | FC Nab2 (1417930_PM_at) (KIDNEY, 100 DMF-vs-Veh, 2 h): 2.74 | FC Nasp (1416042_PM_s_at) (KIDNEY, 100 DMF-vs-Veh, 2 h): 1.62 | FC Nfil3 (1418932_PM_at) (KIDNEY, 100 DMF-vs-Veh, 2 h): 2.29 | FC Pmaip1 (1418203_PM_at) (KIDNEY, 100 DMF-vs-Veh, 2 h): 1.68 | FC Ppp2r3c (1417479_PM_at) (KIDNEY, 100 DMF-vs-Veh, 2 h): 1.59 | FC Rcan1 (1416600_PM_a_at) (KIDNEY, 100 DMF-vs-Veh, 2 h): 1.51 | FC Sertad1 (1417406_PM_at) (KIDNEY, 100 DMF-vs-Veh, 2 h): 2.06 | FC Sirt1 (1418640_PM_at) (KIDNEY, 100 DMF-vs-Veh, 2 h): 1.68 | FC Slc22a4 (1417639_PM_at) (KIDNEY, 100 DMF-vs-Veh, 2 h): −1.51 | FC Tnfrsf12a 1418571_PM_at (KIDNEY, 100 DMF-vs-Veh, 2 h): 2.37 | FC Tnfrsf12a 1418572_PM_x_at (KIDNEY, 100 DMF-vs-Veh, 2 h): 2.33 | FC Tnnc1 (1418370_PM_at) (KIDNEY, 100 DMF-vs-Veh, 2 h): 1.89 | FC Txnip (1415997_PM_at) (KIDNEY, 100 DMF-vs-Veh, 2 h): −1.73 | FC Zfand2a (1415940_PM_at) (KIDNEY, 100 DMF-vs-Veh, 2 h): 1.55 | FC Zfand5 (1416084_PM_at) (KIDNEY, 100 DMF-vs-Veh, 2 h): 1.63 | FC Zfand5 (1416085_PM_s_at) (KIDNEY, 100 DMF-vs-Veh, 2 h): 1.68 | Number of genes, DMF Only / MMF Only (Kidney): 61 | Asns (1451095_PM_at) differential expression (Kidney, 2 hr): 3.03 | Cbr3 (1427912_PM_at) differential expression (Kidney, 2 hr): 3.04 | Gdf15 (1418949_PM_at) differential expression (Kidney, 2 hr): 5.39 | Mthfd2 (1419253_PM_at) differential expression (Kidney, 2 hr): 2.06 | Number of differentially expressed genes identified: Kidney (100 mpk DMF-vs-100 mpk MMF, 2 h after last dosing): 1 | Number of differentially expressed genes identified: Kidney (100 mpk DMF-vs-100 mpk MMF, 7 h after last dosing): 1 | Number of differentially expressed genes identified: Kidney (100 mpk DMF-vs-100 mpk MMF, 12 h after last dosing): 2 | Number of differentially expressed genes identified: Kidney (100 mpk, vs Vehicle, 2 h after last dosing): 331 | Number of differentially expressed genes identified: Kidney (100 mpk, vs Vehicle, 7 h after last dosing): 93 | Number of differentially expressed genes identified: Kidney (100 mpk, vs Vehicle, 12 h after last dosing): 100 | Asns (1451095_PM_at) differential expression (kidney, 7 hr): 1.92 | Cbr3 (1427912_PM_at) differential expression (kidney, 7 hr): 5.88 | Gdf15 (1418949_PM_at) differential expression (kidney, 7 hr): 1.75 | Mthfd2 (1419253_PM_at) differential expression (kidney, 7 hr): 1.65 | Asns (1451095_PM_at) differential expression (kidney, 12 hr): 2.65 | Cbr3 (1427912_PM_at) differential expression (kidney, 12 hr): 5.67 | Gdf15 (1418949_PM_at) differential expression (kidney, 12 hr): 1.77 | Mthfd2 (1419253_PM_at) differential expression (kidney, 12 hr): 1.60 | FC 1439640_PM_at (no gene symbol) (kidney, 100DMF-vs-100MMF, 2 h): 1.54 | FC Nr1d1 (1426464_PM_at) (kidney, 100DMF-vs-100MMF, 7 h): 1.56 | FC 1441333_PM_at (no gene symbol) (kidney, 100DMF-vs-100MMF, 12 h): 1.91 | FC C76628 (1420187_PM_at) (kidney, 100DMF-vs-100MMF, 12 h): 1.59
